Test results reported in paper PMC6695598, “The Development of Tetrazole Derivatives as Protein Arginine Methyltransferase I (PRMT I) Inhibitors” (International Journal of Molecular Sciences, 2019).
Counter-ions that a name gives are not always drawn.

Legend:
[1] = molecular target: PRMT1 (Homo sapiens, UniProt Q99873); assay: radioactive PRMT1 methylation inhibition assay ([3H]-SAM, biotinylated histone H4 peptide); assay type: biochemical; conditions: for inhibition at 10 µM / % Inhibition of PRMT1 (at 10 μM): 10 μM compound, initial screening
Experimental: A series of 1,5-substituded tetrazole derivatives were synthesized to investigate the structure-activity relationship (SAR) of PRMT1 inhibitors (Table 1). […] The chemical modification of these compounds is mainly focused on the substituted benzene ring. The initial screening of these compounds was carried out using the radioactive PRMT1 methylation inhibition assay, which measured the amount of methyl groups that transferred from [^3H]-SAM to a biotinylated histone H4 peptide (ac- […](Biotin)). […] In the second step, the Group II compounds were designed and synthesized by extending the ethylenediamine side chain to propylenediamine.
(§1) The enzyme inhibitory activities were measured by the radioisotope assay in ShangHai Chempartner Co. Ltd. according to the standard protocol. The similar procedure was recently performed in the publication The radioactive methylation assay was performed in 1× assay buffer (modified Tris buffer) system containing enzyme (PRMT1/5), peptide and [^3H]-SAM solution and compounds on the assay plate. […] Afterwards, the reaction was stopped with addition of 5 μL cold SAM solution to per well. Then, 25 μL of volume per well was transferred to Flashplate from assay plate and incubated for 1 h minimum at room temperature. Finally, the Flashplate was washed with dH2O and 0.1% Tween-20 three times and then reading plate in Mi crobeta using program ^3H-Flashplate. The data was analyzed in GraphPad Prism 5 to obtain IC50 values.

[2] = molecular target: PRMT5 (Homo sapiens, UniProt O14744); assay: radioactive methylation assay, PRMT5 selectivity; assay type: biochemical
Experimental: as §1

Chain of PRMT5 (O14744 whole entry, species assumed): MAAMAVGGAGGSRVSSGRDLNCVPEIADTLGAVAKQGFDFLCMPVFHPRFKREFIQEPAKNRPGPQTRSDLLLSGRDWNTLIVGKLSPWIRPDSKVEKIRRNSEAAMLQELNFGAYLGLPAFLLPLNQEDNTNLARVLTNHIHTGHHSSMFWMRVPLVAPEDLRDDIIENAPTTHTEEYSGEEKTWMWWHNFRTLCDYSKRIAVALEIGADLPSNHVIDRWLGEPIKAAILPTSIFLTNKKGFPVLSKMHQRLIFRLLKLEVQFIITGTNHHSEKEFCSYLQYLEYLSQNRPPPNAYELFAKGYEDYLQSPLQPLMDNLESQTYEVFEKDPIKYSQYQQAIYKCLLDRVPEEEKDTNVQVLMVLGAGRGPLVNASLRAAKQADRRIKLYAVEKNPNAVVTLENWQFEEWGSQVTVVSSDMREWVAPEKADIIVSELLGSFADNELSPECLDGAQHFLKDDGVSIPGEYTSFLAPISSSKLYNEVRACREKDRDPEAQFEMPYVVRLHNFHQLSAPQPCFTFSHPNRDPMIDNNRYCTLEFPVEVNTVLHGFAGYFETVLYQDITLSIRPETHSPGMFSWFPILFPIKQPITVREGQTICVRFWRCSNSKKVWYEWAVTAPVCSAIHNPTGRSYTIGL
Chain of PRMT5 (Q9BQA1 whole entry partner, species assumed): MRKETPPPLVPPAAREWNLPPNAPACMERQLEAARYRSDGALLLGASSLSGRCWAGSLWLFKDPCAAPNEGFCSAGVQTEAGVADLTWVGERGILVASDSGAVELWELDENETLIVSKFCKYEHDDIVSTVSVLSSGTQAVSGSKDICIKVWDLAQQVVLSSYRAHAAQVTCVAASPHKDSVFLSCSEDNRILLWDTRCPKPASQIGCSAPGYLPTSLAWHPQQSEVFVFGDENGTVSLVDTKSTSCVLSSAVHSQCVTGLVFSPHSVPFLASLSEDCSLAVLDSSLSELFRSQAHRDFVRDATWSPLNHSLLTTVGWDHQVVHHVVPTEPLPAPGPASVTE
Chain of PRMT1 (Q99873 whole entry): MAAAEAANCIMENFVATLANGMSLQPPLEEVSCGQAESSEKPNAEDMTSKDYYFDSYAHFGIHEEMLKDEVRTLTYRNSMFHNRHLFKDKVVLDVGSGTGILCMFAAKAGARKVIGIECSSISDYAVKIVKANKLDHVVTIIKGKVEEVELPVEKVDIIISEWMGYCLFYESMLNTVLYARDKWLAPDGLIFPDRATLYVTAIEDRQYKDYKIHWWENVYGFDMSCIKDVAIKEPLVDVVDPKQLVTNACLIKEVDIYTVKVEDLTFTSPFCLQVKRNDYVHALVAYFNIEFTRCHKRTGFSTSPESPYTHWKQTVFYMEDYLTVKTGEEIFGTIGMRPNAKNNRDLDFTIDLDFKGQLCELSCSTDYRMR

| melting point | inhibition at 10 µM [1] | Compound | further results |
| --- | --- | --- | --- |
|  | 0% | CNCCN(C)Cc1nnnn1-c1cccc(OC(C)C)c1 [9b, N,N’-Dimethyl-N’-(1-(3-isopropoxyphenyl)-1H-tetrazol-5-yl-methyl)ethylenediamine hydrochloride] |  |
| 163.2 to 163.6 °C | 3% | CNCCN(C)Cc1nnnn1-c1ccc(OC)cc1.Cl [9c, N,N’-Dimethyl-N’-(1-(4-methoxyphenyl)-1H-tetrazol-5-yl-methyl)ethylenediamine hydrochloride] |  |
| 185.6 to 186.4 °C | 7% | CNCCN(C)Cc1nnnn1-c1cccc(OC)c1.Cl [9d, N,N’-Dimethyl-N’-(1-(3-methoxyphenyl)-1H-tetrazol-5-yl-methyl)ethylenediamine hydrochloride] |  |
| 185.6 to 186.4 °C | -17% | CNCCN(C)Cc1nnnn1-c1cccc(OC(F)(F)F)c1.Cl [9e, N,N’-Dimethyl-N’-(1-(3-trifluoromethoxyphenyl)-1H-tetrazol-5-yl-methyl)ethylenediamine hydrochloride] |  |
|  | 23% | CNCCCN(C)Cc1nnnn1-c1ccc(OC(C)C)cc1 [10a, N,N’-Dimethyl-N’-(1-(4-isopropoxyphenyl)-1H-tetrazol-5-yl-methyl)-1,3-propylenediamine hydrochloride] |  |
|  | 0% | CNCCCN(C)Cc1nnnn1-c1cccc(OC(C)C)c1 [10b, N,N’-Dimethyl-N’-(1-(3-isopropoxyphenyl)-1H-tetrazol-5-yl-methyl)-1,3-propylenediamine hydrochloride] |  |
| 188.2 to 190.1 °C | -6% | CNCCCN(C)Cc1nnnn1-c1ccc(OC)cc1.Cl [10c, N,N’-Dimethyl-N’-(1-(4-methoxyphenyl)-1H-tetrazol-5-yl-methyl)-1,3-propylenediamine hydrochloride] |  |
|  | -14% | CNCCCN(C)Cc1nnnn1-c1cccc(OC)c1 [10d, N,N’-Dimethyl-N’-(1-(3-methoxyphenyl)-1H-tetrazol-5-yl-methyl)-1,3-propylenediamine hydrochloride] |  |
|  | -12% | CNCCCN(C)Cc1nnnn1-c1cccc(OC(F)(F)F)c1 [10e, N,N’-Dimethyl-N’-(1-(3-trifluoromethoxyphenyl)-1H-tetrazol-5-yl-methyl)-1,3-propylenediamine hydrochloride] |  |
|  | 3% | CNCCN(C)Cc1nnnn1-c1cccc(OCC(F)(F)F)c1 [16d, N,N’-Dimethyl-N’-(1-(3-(2,2,2-trifluoroethoxy)phenyl)-1H-tetrazol-5-ylmethyl)ethylenediamine hydrochloride] |  |
| 186.5 to 187.7 °C | 50% | CC(C)Oc1ccc(-n2nnnc2CN(C)CCN)cc1.Cl [18a, N-(1-(4-Isopropoxyphenyl)-1H-tetrazol-5-yl-methyl)-N-methyl-ethylenediamine hydrochloride] | IC50 [2]: > 100 µM; IC50 [1]: 10 µM |
|  | 15% | CC(C)Oc1ccc(-n2nnnc2CN(C)CCCN)cc1 [18b, N-(1-(4-Isopropoxyphenyl)-1H-tetrazol-5-yl-methyl)-N-methyl-1,3-propylenediamine hydrochloride] |  |
| 179.7 to 180.7 °C | 10% | CNCCNCc1nnnn1-c1ccc(OC(C)C)cc1.Cl [18c, N-Methyl-N’-(1-(4-isopropoxyphenyl)-1H-tetrazol-5-yl-methyl)-ethylenediamine hydrochloride] |  |

Further lines, the compound ahead of its results:

| Compound | melting point | inhibition at 10 µM [1] | further results |
| --- | --- | --- | --- |
| CC(C)Oc1ccc(-n2nnnc2CNCCN)cc1 (as salt: hydrochloride) [18d, N-(1-(4-Isopropoxyphenyl)-1H-tetrazol-5-yl-methyl)-ethylenediaminehydrochloride] | 183.1 to 183.9 °C |  |  |
| CC(C)Oc1ccc(-n2nnnc2CN2CCN(CCN)CC2)cc1 (as salt: hydrochloride) [18e, N-aminoethyl-N’-(1-(4-isopropoxyphenyl)-1H-tetrazol-5-yl-methyl)-piperazinehydrochloride] | 183.2 to 183.9 °C |  |  |
| CNCCN(C)Cc1nnnn1-c1ccc(OC(F)(F)F)cc1.Cl [9f, N,N’-Dimethyl-N’-(1-(4-trifluoromethoxyphenyl)-1H-tetrazol-5-yl-methyl)ethylenediamine hydrochloride] | 194.3 to 195.2 °C |  | IC50 [2]: > 100 µM |
| CNCCN(C)Cc1nnnn1-c1ccc(OCC(F)(F)F)cc1.Cl [16c, N,N’-Dimethyl-N’-(1-(4-(2,2,2-trifluoroethoxy)phenyl)-1H-tetrazol-5-yl-methyl)ethylenediamine hydrochloride] | 188.7 to 190 °C |  | IC50 [2]: > 100 µM |
| CC(C)Oc1ccc(-n2nnnc2CNCCN)cc1 [18d, N-(1-(4-Isopropoxyphenyl)-1H-tetrazol-5-yl-methyl)-ethylenediaminehydrochloride] |  | 18% |  |
| CC(C)Oc1ccc(-n2nnnc2CN2CCN(CCN)CC2)cc1 [18e, N-aminoethyl-N’-(1-(4-isopropoxyphenyl)-1H-tetrazol-5-yl-methyl)-piperazinehydrochloride] |  |  | IC50 [2]: > 100 µM |
| N,N’-Dimethyl-N’-(1-(3-methylsulfonylphenyl)-1H-tetrazol-5-yl-methyl)-1,3-propylenediamine hydrochloride [16e] |  |  | % Inhibition of PRMT1 (at 10 μM) [1]: −4% |
| N,N’-Dimethyl-N’-(1-(3-methylsulfonylphenyl)-1H-tetrazol-5-yl-methyl)ethylenediamine hydrochloride [16b] |  |  | % Inhibition of PRMT1 (at 10 μM) [1]: 13% |
| N,N’-Dimethyl-N’-(1-(4-methylsulfonylphenyl)-1H-tetrazol-5-yl-methyl)ethylenediamine hydrochloride [16a] |  |  | % Inhibition of PRMT1 (at 10 μM) [1]: 23% |
| N-Guanidino-N’-(1-(4-isopropoxyphenyl)-1H-tetrazol-5-yl-methyl)-N’-methyl-ethylenediamine hydrochloride [compound 20] |  |  | % Inhibition of PRMT1 (at 10 μM) [1]: −7% |
